These results are taken from patent US12577234B2, “Antagonists of the muscarinic acetylcholine receptor M4” (Vanderbilt University, priority 2017, dated 2026).

The term IC50 denotes the midpoint of a concentration-inhibition curve.

Each structure is given as a SMILES string.

In the test the target is T1, human mAChR M4 (Homo sapiens, UniProt P08173).
T1 construct: expressed in transfected cells; host or cells: CHO-K1 (ATCC), stably co-expressing chimeric G protein Gqi5
T1 sequence (P08173 1-479): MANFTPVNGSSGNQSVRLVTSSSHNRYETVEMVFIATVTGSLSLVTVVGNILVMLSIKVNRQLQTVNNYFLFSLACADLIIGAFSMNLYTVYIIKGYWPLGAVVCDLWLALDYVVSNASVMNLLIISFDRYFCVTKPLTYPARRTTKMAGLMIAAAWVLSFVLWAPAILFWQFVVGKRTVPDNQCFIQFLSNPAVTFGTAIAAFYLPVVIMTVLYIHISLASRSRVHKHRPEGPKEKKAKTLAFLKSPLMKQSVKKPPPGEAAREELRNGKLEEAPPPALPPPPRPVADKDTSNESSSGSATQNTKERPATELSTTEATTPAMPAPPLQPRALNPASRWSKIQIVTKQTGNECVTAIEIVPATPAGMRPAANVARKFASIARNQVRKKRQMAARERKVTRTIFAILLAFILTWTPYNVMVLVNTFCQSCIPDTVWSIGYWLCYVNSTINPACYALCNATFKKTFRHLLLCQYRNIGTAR
Nature of the test: mAChR M4 cell-based functional assay (calcium mobilization, EC80 acetylcholine), human M4. As to conditions: for IC50: M4/Gqi5/CHO-K1 cells, decrease of EC80 acetylcholine response; for Emin: human M4, % ACh maximum at 30 μM. As to the method: Human or rat M4 cDNA, along with the chimeric G protein Gqi5, were transfected into Chinese hamster ovary (CHO-K1) cells purchased from the American Type Culture Collection using Lipofectamine2000. M4/Gqi5/CHO cells were grown in Ham's F-12 medium containing 10% heat-inactivated fetal bovine serum (FBS), 20 mM HEPES, 500 μg/mL G418 sulfate, and 200 μg/mL Hygromycin B.
For high throughput measurement of agonist-evoked increases in intracellular calcium, CHO-K1 cells stably expressing muscarinic receptors were plated in growth medium lacking G418 and hygromycin at 15,000 cells/20 μL/well in Greiner 384-well black-walled, tissue culture (TC)-treated, clear-bottom plates (VWR). Cells were incubated overnight at 37° C. and 5% CO2. […] Compound master plates were formatted in a 10 point concentration-response curve (CRC) format (1:3 dilutions) in 100% DMSO with a starting concentration of 10 or 1 mM using a BRAVO liquid handler (Agilent). Test compound CRCs were then transferred to daughter plates (240 nL) using the Echo acoustic plate reformatter (Labcyte, Sunnyvale, CA) and then diluted into assay buffer (40 μL) to a 2× stock using a Thermo Fisher Combi (Thermo Fisher Scientific, Waltham, MA).
Calcium flux was measured using the Functional Drug Screening System (FDSS) 6000 or 7000 (Hamamatsu Corporation, Tokyo, Japan) as an increase in the fluorescent static ratio. Compounds were applied to cells (20 μL, 2×) using the automated system of the FDSS at 2 seconds into the protocol and the data were collected at 1 Hz. […] Agonist activity was analyzed as a concentration-dependent increase in calcium mobilization upon compound addition. Positive allosteric modulator activity was analyzed as a concentration-dependent increase in the EC20 acetylcholine response. Antagonist activity was analyzed as a concentration-dependent decrease in the EC80 acetylcholine response; for the purposes of the tables herein, an IC50 (inhibitory concentration 50) was calculated as a concentration-dependent decrease of the response elicited by an EC80 concentration of acetylcholine. Concentration-response curves were generated using a four-parameter logistical equation in XLFit curve fitting software (IDBS, Bridgewater, NJ) for Excel (Microsoft, Redmond, WA) or Prism (GraphPad Software, Inc., San Diego, CA) or the Dotmatics software platform (Dotmatics, Bishop's Stortford, UK).

Take `Fc1ccc(Cl)c(-c2ccc(N[C@H]3C[C@@H]4CN(CC5CC6C=CC5C6)C[C@@H]4C3)nn2)c1` (stereo partly drawn) [Compound 27, (3aR,5s,6aS)-2-(5-bicyclo[2.2.1]hept-2-enylmethyl)-N-[6-(2-chloro-5-fluoro-phenyl)pyridazin-3-yl]-3,3a,4,5,6,6a-hexahydro-1H-cyclopenta[c]pyrrol-5-amine]: for the setting “Table 9”, the concentration for half-maximal inhibition (IC50) stood at 9.3 nM and the Emin was determined as 5.94%.
Regarding `Cc1cnn(C)c1-c1ccc(N[C@H]2C[C@@H]3CN(CC45CC6CC(CC(C6)C4)C5)C[C@@H]3C2)nn1` [compound 16], the IC50 (Table 9) was 26 nM.
Consider `Cc1cccnc1CN1C[C@H]2C[C@H](Nc3ccc(-c4c(C)cnn4C)nn3)C[C@H]2C1` [Compound 24, (3aR,5s,6aS)-N-[6-(2,4-dimethylpyrazol-3-yl)pyridazin-3-yl]-2-[(3-methyl-2-pyridyl)methyl]-3,3a,4,5,6,6a-hexahydro-1H-cyclopenta[c]pyrrol-5-amine], for which, where the note is “Table 9”, the IC50 is 37.8 nM and the Emin is recorded as 5.36%.
Taken in the same sequence, the figures for `Cc1nn(C)cc1-c1ccc(N[C@@H]2C[C@@H]3CN(CCC(C)(C)C)C[C@@H]3C2)c(F)c1F` [Compound 41, (3aR,5r,6aS)-2-(3,3-Dimethylbutyl)-N-[4-(1,3-dimethylpyrazol-4-yl)-2,3-difluoro-phenyl]-3,3a,4,5,6,6a-hexahydro-1H-cyclopenta[c]pyrrol-5-amine] were 433 nM and 4.62%.
Turning to `c1cc(N2CCCC2)nnc1N[C@H]1C[C@@H]2CN(CC3CCOCC3)C[C@@H]2C1` [Compound 192, (3aR,5s,6aS)-N-(6-pyrrolidin-1-ylpyridazin-3-yl)-2-(tetrahydropyran-4-ylmethyl)-3,3a,4,5,6,6a-hexahydro-1H-cyclopenta[c]pyrrol-5-amine], where the note is “Table 10”, the “Human M4 Emin” value came out at 6% and the IC50 is 40.6 nM.
Turning to `Cc1ccc(-c2ccc(N[C@H]3C[C@@H]4CN(CC5CCOCC5)C[C@@H]4C3)nn2)cc1` [Compound 198, (3aR,5s,6aS)-N-[6-(p-tolyl)pyridazin-3-yl]-2-(tetrahydropyran-4-ylmethyl)-3,3a,4,5,6,6a-hexahydro-1H-cyclopenta[c]pyrrol-5-amine], where the note is “Table 10”, the “Human M4 Emin” value is listed as 6% and the IC50 was 3.99 nM.
`Fc1cccc(Cl)c1-c1ccc(N[C@H]2C[C@@H]3CN(CC4CCOCC4)C[C@@H]3C2)nn1` [Compound 204, (3aR,5s,6aS)-N-[6-(2-chloro-6-fluoro-phenyl)pyridazin-3-yl]-2-(tetrahydropyran-4-ylmethyl)-3,3a,4,5,6,6a-hexahydro-1H-cyclopenta[c]pyrrol-5-amine]: where the note is “Table 10”, the “Human M4 Emin” value worked out at 4% and the IC50 is 0.432 nM.
As to `Cc1nn(C)cc1-c1ccc(N[C@@H]2C[C@@H]3CN(CC4CC5C=CC4C5)C[C@@H]3C2)c(F)c1F` (stereo partly drawn) [Compound 42, (3aR,5r,6aS)-2-(5-bicyclo[2.2.1]hept-2-enylmethyl)-N-[4-(1,3-dimethylpyrazol-4-yl)-2,3-difluoro-phenyl]-3,3a,4,5,6,6a-hexahydro-1H-cyclopenta[c]pyrrol-5-amine], where the note is “Table 9”, the IC50 worked out at 422 nM and the Emin is on record as 4.00%.
As to `CC1(C)CC(CN2C[C@H]3C[C@H](Nc4ccc(-c5cc(F)ccc5Cl)nn4)C[C@H]3C2)CCO1` (stereo partly drawn) [Compound 173, (3aR,5s,6aS)-N-[6-(2-chloro-5-fluoro-phenyl)pyridazin-3-yl]-2-[(2,2-dimethyltetrahydropyran-4-yl)methyl]-3,3a,4,5,6,6a-hexahydro-1H-cyclopenta[c]pyrrol-5-amine], where the note is “Table 10”, the “Human M4 Emin” value is on record as 3% and the IC50 came out at 3.32 nM.
As to `CCCC(C)CN1C[C@H]2CC(COc3ccc(-c4cc(F)ccc4Cl)nn3)C[C@H]2C1` (stereo partly drawn) [Compound 110, (3aR,6aS)-5-[[6-(2-chloro-5-fluoro-phenyl)pyridazin-3-yl]oxymethyl]-2-(2-methylpentyl)-3,3a,4,5,6,6a-hexahydro-1H-cyclopenta[c]pyrrole], where the note is “Table 9”, the IC50 turned out to be 773 nM and the Emin amounted to 4.60%.
Take `Cc1cnn(C)c1-c1ccc(O[C@H]2C[C@@H]3CN(CCC(C)(C)C)C[C@@H]3C2)nn1` [Compound 135, (3aR,5s,6aS)-2-(3,3-dimethylbutyl)-5-[6-(2,4-dimethylpyrazol-3-yl)pyridazin-3-yl]oxy-3,3a,4,5,6,6a-hexahydro-1H-cyclopenta[c]pyrrole]: for the setting “Table 10”, the “Human M4 Emin” value is given as 5% and the IC50 came out at 287 nM.
Taken in the same sequence, the figures for `Fc1ccc(Cl)c(-c2ccc(N[C@H]3C[C@@H]4CN(Cc5ccc6c(c5)OCO6)C[C@@H]4C3)nn2)c1` [Compound 166, (3aR,5s,6a5)-2-(1,3-benzodioxol-5-ylmethyl)-N-[6-(2-chloro-5-fluoro-phenyl)pyridazin-3-yl]-3,3a,4,5,6,6a-hexahydro-1H-cyclopenta[c]pyrrol-5-amine] were 2% and 6.19 nM.
`CC(C)(C)CCN1C[C@H]2C[C@@H](Oc3ccc(-c4cc(F)ccc4Cl)nn3)C[C@H]2C1` [Compound 54, (3aR,5r,6aS)-5-[6-(2-chloro-5-fluoro-phenyl)pyridazin-3-yl]oxy-2-(3,3-dimethylbutyl)-3,3a,4,5,6,6a-hexahydro-1H-cyclopenta[c]pyrrole]: under “Table 9”, the IC50 was 222 nM and the Emin was determined as 3.07%.
Turning to `Cc1nn(C)cc1-c1ccc(O[C@H]2C[C@@H]3CN(CCC(C)(C)C)C[C@@H]3C2)nn1` [Compound 134, (3aR,5s,6aS)-2-(3,3-dimethylbutyl)-5-[6-(1,3-dimethylpyrazol-4-yl)pyridazin-3-yl]oxy-3,3a,4,5,6,6a-hexahydro-1H-cyclopenta[c]pyrrole], for the setting “Table 10”, the “Human M4 Emin” value stood at 4% and the IC50 amounted to 17.3 nM.
Take `Cc1nn(C)cc1-c1cnc(N[C@H]2C[C@@H]3CN(CCC(C)(C)C)C[C@@H]3C2)cn1` [Compound 153, (3aR,5s,6aS)-2-(3,3-dimethylbutyl)-N-[5-(1,3-dimethylpyrazol-4-yl)pyrazin-2-yl]-3,3a,4,5,6,6a-hexahydro-1H-cyclopenta[c]pyrrol-5-amine]: where the note is “Table 10”, the “Human M4 Emin” value is recorded as 5% and the concentration for half-maximal inhibition (IC50) came to 124 nM.
Taken in the same sequence, the figures for `c1nn(C2CC2)cc1-c1ccc(N[C@H]2C[C@@H]3CN(CC4CCOCC4)C[C@@H]3C2)nn1` [Compound 209, (3aR,5s,6aS)-N-[6-(1-cyclopropylpyrazol-4-yl)pyridazin-3-yl]-2-(tetrahydropyran-4-ylmethyl)-3,3a,4,5,6,6a-hexahydro-1H-cyclopenta[c]pyrrol-5-amine] were 13% and 4.41 nM.
Regarding `Cc1nn(C)cc1-c1ccc(NCC2C[C@@H]3CN(CC4CC5C=CC4C5)C[C@@H]3C2)nn1` (stereo partly drawn) [Compound 62, N-[[(3aR,6aS)-2-(5-bicyclo[2.2.1]hept-2-enylmethyl)-3,3a,4,5,6,6a-hexahydro-1H-cyclopenta[c]pyrrol-5-yl]methyl]-6-(1,3-dimethylpyrazol-4-yl)pyridazin-3-amine], for the setting “Table 9”, the IC50 was determined as 18.9 nM and the Emin amounted to 3.32%.
Turning to `Cc1nn(C)cc1-c1ccc(N[C@H]2C[C@@H]3CN(CC4CCOCC4)C[C@@H]3C2)nc1` [Compound 152, (3aR,5s,6aS)-N-[5-(1,3-dimethylpyrazol-4-yl)-2-pyridyl]-2-(tetrahydropyran-4-ylmethyl)-3,3a,4,5,6,6a-hexahydro-1H-cyclopenta[c]pyrrol-5-amine], for the setting “Table 10”, the “Human M4 Emin” value amounted to 8% and the IC50 is 1580 nM.
